According to US20030004172A1, “Fused pyrimidinone matrix metalloproteinase inhibitors” (priority 2001, published 2003):

Target: MMP-13CD (catalytic domain of collagenase-3) (Homo sapiens, UniProt P45452)
Assay: Thiopeptolide substrate hydrolysis inhibition assay, MMP-13CD
Assay type: biochemical
Details: Table I; thiopeptolide substrate, HEPES pH 7.0, 22° C.; read-out: MMP-13CD IC50
Source text: Thiopeptolide substrates show virtually no decomposition or hydrolysis at or below neutral pH in the absence of a matrix metalloproteinase enzyme.

SMILES	IC50
COc1ccc(CNC(=O)c2cc3c(=O)n(CCNS(=O)(=O)c4ccc(Cl)cc4)c(=O)n(C)c3s2)cc1 [Example 231, 3-[2-(4-Chloro-benzenesulfonylamino)-ethyl]-1-methyl-2,4-dioxo-1,2,3,4-tetrahydro-thieno[2,3-d]pyrimidine-6-carboxylic acid 4-methoxy-benzylamide]	2900 nM
COc1cccc(CNC(=O)c2cc3c(=O)n(CCOc4ccc(Br)cc4)c(=O)n(C)c3s2)c1 [Example 233, 3-[2-(4-Bromo-phenoxy)-ethyl]-1-methyl-2,4-dioxo-1,2,3,4-tetrahydro-thieno[2,3-d]pyrimidine-6-carboxylic acid 3-methoxy-benzylamide]	69 nM
COc1ccc(CNC(=O)c2cc3c(=O)n(CCOc4ccc(F)cc4)c(=O)n(C)c3s2)cc1 [Example 234, 3-[2-(4-Fluoro-phenoxy)-ethyl]-1-methyl-2,4-dioxo-1,2,3,4-tetrahydro-thieno[2,3-d]pyrimidine-6-carboxylic acid 4-methoxy-benzylamide]	150 nM
COc1ccc(CNC(=O)c2cc3c(=O)n(CCN)c(=O)n(C)c3s2)cc1 [Example 235, 3-(2-aminoethyl)-1-methyl-2,4-dioxo-1,2,3,4-tetrahydro-thieno[2,3-d]pyrimidine-6-carboxylic acid 4-methoxy-benzylamide]	18000 nM
COc1cccc(CNC(=O)c2cc3c(=O)n(CCOc4ccc(F)cc4)c(=O)n(C)c3s2)c1 [Example 236, 3-[2-(4-fluoro-phenoxy)-ethyl]-1-methyl-2,4-dioxo-1,2,3,4-tetrahydro-thieno[2,3-d]pyrimidine-6-carboxylic acid 3-methoxy-benzylamide]	49.5 nM
COc1cccc(CNC(=O)c2cc3c(=O)n(CCOc4ccc(Cl)cc4)c(=O)n(C)c3s2)c1 [Example 237, 3-[2-(4-chloro-phenoxy)-ethyl]-1-methyl-2,4-dioxo-1,2,3,4-tetrahydro-thieno[2,3-d]pyrimidine-6-carboxylic acid 3-methoxy-benzylamide]	92.5 nM
COC(=O)c1ccc(Cn2c(=O)c3cc(C(=O)NCc4ccc(OC)cc4)sc3n(C)c2=O)cc1C [Example 238, 4-[6-(4-Methoxy-benzylcarbamoyl)-1-methyl-2,4-dioxo-1,4-dihydro-2H-thieno[2,3-d]pyrimidin-3-ylmethyl]-2-methyl-benzoic acid methyl ester]	55.5 nM
COC(=O)c1ccc(Cn2c(=O)c3cc(C(=O)NCc4ccc(OC)cc4)sc3n(C)c2=O)cc1 [Example 239, 4-[6-(4-Methoxy-benzylcarbamoyl)-1-methyl-2,4-dioxo-1,4-dihydro-2H-thieno[2,3-d]pyrimidin-3-ylmethyl]-benzoic acid methyl ester]	58.5 nM
COC(=O)c1ccc(Cn2c(=O)c3cc(C(=O)NCc4cccc(OC)c4)sc3n(C)c2=O)cc1OC [Example 240, 2-Methoxy-4-[6-(3-methoxy-benzylcarbamoyl)-1-methyl-2,4-dioxo-1,4-dihydro-2H-thieno[2,3-d]pyrimidin-3-ylmethyl]-benzoic acid methyl ester]	180 nM
COC(=O)c1ccc(Cn2c(=O)c3cc(C(=O)NCc4cccc(OC)c4)sc3n(C)c2=O)cc1C [Example 241, 4-[6-(3-Methoxy-benzylcarbamoyl)-1-methyl-2,4-dioxo-1,4-dihydro-2H-thieno[2,3-d]pyrimidin-3-ylmethyl]-2-methyl-benzoic acid methyl ester]	19.5 nM
COc1ccc(CNC(=O)c2cc3c(=O)n(CCC(=O)c4ccccc4)c(=O)n(C)c3s2)cc1 [Example 242, 1-Methyl-2,4-dioxo-3-(3-oxo-3-phenyl-propyl)-1,2,3,4-tetrahydro-thieno[2,3-d]pyrimidine-6-carboxylic acid 4-methoxy-benzylamide]	3000 nM
COc1cccc(CNC(=O)c2cc3c(=O)n(CCC(=O)c4ccccc4)c(=O)n(C)c3s2)c1 [Example 243, 1-Methyl-2,4-dioxo-3-(3-oxo-3-phenyl-propyl)-1,2,3,4-tetrahydro-thieno[2,3-d]pyrimidine-6-carboxylic acid 3-methoxy-benzylamide]	1400 nM
COc1cccc(CNC(=O)c2cc3c(=O)n(CCS(=O)(=O)c4cccc(C(F)(F)F)c4)c(=O)n(C)c3s2)c1 [Example 244, 1-Methyl-2,4-dioxo-3-[2-(3-trifluoromethyl-benzenesulfonyl)-ethyl]-1,2,3,4-tetrahydro-thieno[2,3-d]pyrimidine-6-carboxylic acid 3-methoxy-benzylamide]	1250 nM
COc1ccc(CNC(=O)c2cc3c(=O)n(CCS(=O)(=O)c4cccc(C(F)(F)F)c4)c(=O)n(C)c3s2)cc1 [Example 245, 1-Methyl-2,4-dioxo-3-[2-(3-trifluoromethyl-benzenesulfonyl)-ethyl]-1,2,3,4-tetrahydro-thieno[2,3-d]pyrimidine-6-carboxylic acid 4-methoxy-benzylamide]	30000 nM
COc1ccc(CNC(=O)c2cc3c(=O)n(CCS(=O)(=O)c4ccc(Cl)cc4)c(=O)n(C)c3s2)cc1 [Example 247, 3-[2-(4-Chloro-benzenesulfonyl)-ethyl]-1-methyl-2,4-dioxo-1,2,3,4-tetrahydro-thieno[2,3-d]pyrimidine-6-carboxylic acid 4-methoxy-benzylamide]	7200 nM
Cc1cc(Cn2c(=O)c3cc(C(N)=O)sc3n(C)c2=O)ccc1C(=O)O [Example 249]	7800 nM
Cc1cc(Cn2c(=O)c3cc(C(=O)NCc4cccc(O)c4)sc3n(C)c2=O)ccc1C(=O)O [Example 250, 4-[6-(3-hydroxy-benzylcarbamoyl)-1-methyl-2,4-dioxo-1,4-dihydro-2H-thieno[2,3-d]pyrimidin-3-ylmethyl]-2-methyl-benzoic acid]	7.65 nM
Cn1c(=O)n(Cc2ccc(C(=O)O)c(O)c2)c(=O)c2cc(C(N)=O)sc21 [Example 251]	655 nM
COc1cccc(CNC(=O)c2cc3c(=O)n(CCN)c(=O)n(C)c3s2)c1 [Example 252, 3-(2-Aminoethyl)-1-methyl-2,4-dioxo-1,2,3,4-tetrahydro-thieno[2,3-d]pyrimidine-6-carboxylic acid 3-methoxy-benzylamide]	24000 nM
COc1ccc(CNC(=O)c2cc3c(=O)n(C(C)c4ccccc4)c(=O)n(C)c3s2)cc1 (stereo not shown) [Example 253]	810 nM
COc1ccc(CNC(=O)c2cc3c(=O)n(CCOc4ccc(Br)cc4)c(=O)n(C)c3s2)cc1 [Example 273]	59 nM

Now from value to compound:

IC50	SMILES
1500 nM	COc1ccc(CNC(=O)c2cc3c(=O)n(CCC(=O)c4ccccc4)c(=O)n(C)c3s2)cc1 [Example 254]
14000 nM	COc1ccc(CNC(=O)c2cc3c(=O)n(CC[C@@H](C)CCC=C(C)C)c(=O)n(C)c3s2)cc1 [Example 255]
27500 nM	CCCCC(CC)Cn1c(=O)c2cc(C(=O)NCc3ccc(OC)cc3)sc2n(C)c1=O (stereo not shown) [Example 256]
1500 nM	COc1ccc(CNC(=O)c2cc3c(=O)n(CCCCCC#N)c(=O)n(C)c3s2)cc1 [Example 257]
270 nM	C/C=C/Cn1c(=O)c2cc(C(=O)NCc3ccc(OC)cc3)sc2n(C)c1=O [Example 258]
30000 nM	COc1ccc(CNC(=O)c2cc3c(=O)n(CCc4cccc5ccccc45)c(=O)n(C)c3s2)cc1 [Example 259]
63 nM	CC/C=C/Cn1c(=O)c2cc(C(=O)NCc3ccc(OC)cc3)sc2n(C)c1=O [Example 260]
580 nM	COc1ccc(CNC(=O)c2cc3c(=O)n(CCSc4ccccc4)c(=O)n(C)c3s2)cc1 [Example 261]
3400 nM	CCC(C)n1c(=O)c2cc(C(=O)NCc3ccc(OC)cc3)sc2n(C)c1=O (stereo not shown) [Example 262]
2150 nM	C=C(C)Cn1c(=O)c2cc(C(=O)NCc3ccc(OC)cc3)sc2n(C)c1=O [Example 263]
7400 nM	CCC(CC)n1c(=O)c2cc(C(=O)NCc3ccc(OC)cc3)sc2n(C)c1=O [Example 264]
38 nM	CCC#CCn1c(=O)c2cc(C(=O)NCc3ccc(OC)cc3)sc2n(C)c1=O [Example 265]
4000 nM	COc1ccc(CNC(=O)c2cc3c(=O)n(CCS(=O)(=O)c4ccccc4)c(=O)n(C)c3s2)cc1 [Example 266]
1100 nM	COc1ccc(CNC(=O)c2cc3c(=O)n(CC=C(C)C)c(=O)n(C)c3s2)cc1 [Example 267]
3600 nM	COc1ccc(CNC(=O)c2cc3c(=O)n(CCS(=O)(=O)c4ccc(F)cc4)c(=O)n(C)c3s2)cc1 [Example 268]
26000 nM	COc1ccc(CNC(=O)c2cc3c(=O)n(CCS(=O)(=O)c4ccc(C)cc4)c(=O)n(C)c3s2)cc1 [Example 269]
1800 nM	COc1ccc(CNC(=O)c2cc3c(=O)n(CCC(=O)c4ccc(F)cc4)c(=O)n(C)c3s2)cc1 [Example 270]
5900 nM	COc1ccc(CNC(=O)c2cc3c(=O)n(CCC(=O)c4ccc(Cl)cc4)c(=O)n(C)c3s2)cc1 [Example 271]
30000 nM	COc1ccc(CNC(=O)c2cc3c(=O)n(CCNC(=O)c4ccccc4)c(=O)n(C)c3s2)cc1 [Example 272]
18 nM	COc1ccc(CNC(=O)c2cc3c(=O)n(Cc4ccc5nonc5c4)c(=O)n(C)c3s2)cc1 [Example 274]
36 nM	COc1ccc(CNC(=O)c2cc3c(=O)n(CCOc4ccccc4)c(=O)n(C)c3s2)cc1 [Example 275]
230 nM	COC(=O)Nc1cc(Cn2c(=O)c3cc(C(=O)NCc4ccc(OC)cc4)sc3n(C)c2=O)on1 [Example 276]
20000 nM	COc1ccc(CNC(=O)c2cc3c(=O)n(CC(=O)C(CC(=O)OC(C)(C)C)NC(=O)OCc4ccccc4)c(=O)n(C)c3s2)cc1 (stereo not shown) [Example 277]
7600 nM	COc1cccc(CNC(=O)c2cc3c(=O)n(CCSc4ccc(Cl)cc4)c(=O)n(C)c3s2)c1 [Example 278]
3500 nM	COc1cccc(CNC(=O)c2cc3c(=O)n(C(C)c4ccccc4)c(=O)n(C)c3s2)c1 (stereo not shown) [Example 279]
17000 nM	COc1cccc(CNC(=O)c2cc3c(=O)n(CC[C@@H](C)CCC=C(C)C)c(=O)n(C)c3s2)c1 [Example 280]
8900 nM	CCCCC(CC)Cn1c(=O)c2cc(C(=O)NCc3cccc(OC)c3)sc2n(C)c1=O (stereo not shown) [Example 281]
10000 nM	COc1cccc(CNC(=O)c2cc3c(=O)n(CCS(=O)(=O)Cc4ccccc4)c(=O)n(C)c3s2)c1 [Example 282]
